{
  "source": "patent US10689369B2",
  "about": "“Substituted indazole compounds as RORgammaT inhibitors and uses thereof” (Merck Sharp & Dohme Corp., priority 2015, dated 2020)",
  "key": {"[1]": {"test_system": "murine collagen-induced arthritis model", "assay": "Murine collagen-induced arthritis model", "format": "in vivo, DBA/1J mice", "settings": "oral 3, 10 or 30 mg/kg twice daily; FIG. 4", "description": "Female DBA/1J mice (Jackson Laboratories, 7-8 weeks old) were received and allowed to acclimate for about one week. On the day of immunization, an emulsion was freshly prepared by homogenizing equal volumes of Complete Freund's Adjuvant (CFA, Chondrex #7001) and a collagen type-2 solution (bovine source, Chondrex #20022) using a tissue homogenizer, on ice. A volume of 0.1 mL of this emulsion was injected subcutaneously into the base of the tail of each mouse, which was lightly anesthetized with isoflurane. Mice recovered from anesthesia were allowed food and water ad libitum.\nEighteen days after immunization, the mice were injected intraperitoneally with 40 μg of lipopolysaccaride (LPS, Sigma # L4005) in 0.2 mL saline, in order to help synchronize the disease progression in all animals. Seven days after LPS injection, the mice were assessed for knee joint swelling by measurement of each knee joint using digital calipers and computing total joint circumference. The total knee joint circumference of the 4 knee joints was then used to randomize mice into treatment groups of equal average circumference.\nThis dosing continued twice daily at 8- and 16-hour intervals for the duration of the study. As a positive control, one group of mice received 25 mg/kg Jak inhibitor (JAKi) tofacitinib once per day. Joints were measured 2-3 times per week."}, "PPARγ": {"target": "PPARγ (Homo sapiens (Human), UniProt P37231)", "sequence (P37231 238-503, species assumed)": "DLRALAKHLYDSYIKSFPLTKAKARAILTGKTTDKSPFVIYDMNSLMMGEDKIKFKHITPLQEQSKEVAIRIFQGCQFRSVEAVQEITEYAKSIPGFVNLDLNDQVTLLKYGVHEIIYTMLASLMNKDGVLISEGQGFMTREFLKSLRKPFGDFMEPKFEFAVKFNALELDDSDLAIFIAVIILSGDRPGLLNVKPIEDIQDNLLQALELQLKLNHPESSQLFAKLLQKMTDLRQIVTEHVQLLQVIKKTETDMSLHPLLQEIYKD", "assay": "Nuclear hormone receptor selectivity assay (GAL4-NHR-LBD luciferase reporter, HEK293)", "format": "cell-based", "description": "In the assay system used, an activated GAL4-nuclear hormone receptor (NHR) fusion construct binds to an upstream activation sequence (UAS) and drives a luciferase reporter gene. […]\nHEK293 cells were transfected with GAL4-NHR-LBD construct (pcDNA3.1neo) and the pGL4.31 GAL4-luciferase reporter construct (Promega) and incubated overnight at 37° C. and 5% CO2. After 16-24 hours, cells were harvested and plated at 20 μL (10,000 cells)/well in tissue-culture treated 384 well plate. […] Next, plates are spun briefly and incubated overnight at 37° C. and 5% CO2. […] In agonist mode, test compound was incubated directly with the cells. For receptors that are not constitutively active, a known agonist is also tested as a positive control.\nAfter 16-24 hours, luciferase activity was measured. Plates and luciferase reagent (e.g. One-Glo® or Dual Glo®; Promega, Madison, Wis.) were brought to room temperature. Next, a 25 μL aliquot of luciferase reagent was added to each well. Plates were spun down briefly and incubated at room temperature for 10 minutes. The luciferase signal was measured on an Envision plate reader (Perkin Elmer) set to the ultra-sensitive luminescence setting."}},
  "data": [
    {"smiles": "O=C(O)[C@@H]1CC=C(c2nn(C(=O)c3c(Cl)cccc3C3(C(F)(F)F)CC3)c3c2CC[C@@H](C(=O)N2CCC4(COC4)C2)C3)CC1", "note": "[Test Compound]", "values": [
      {"measurement": "total joint circumference", "setting": "[1]", "result": "dose-dependent decrease in total joint circumference"},
      {"measurement": "Agonist Mode, kind of agonism", "setting": "PPARγ", "result": "(partial agonist)"}
    ]}
  ]
}
